# In the supplement of paper PMC10307832:
# Experiments:
# Assay in all cases: relative viability (nuclei count vs DMSO), 5 days (fraction); higher = more cells survive
# Tanzisertib + Alpelisib = compound: O[C@H]1CC[C@H](Nc2ncc3nc(Nc4c(F)cc(F)cc4F)n([C@H]4CCOC4)c3n2)CC1 [Tanzisertib] + Cc1nc(NC(=O)N2CCC[C@H]2C(N)=O)sc1-c1ccnc(C(C)(C)C(F)(F)F)c1 [Alpelisib] (partner 2 µM)
# How it was run: (§1)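 Relative viability divides the nuclei count in treated wells by that in vehicle wells. Lung cancer cell lines were seeded in 1536-well plates, dosed by pin tool the next day, and fixed and stained after 5 days in one step with final 0.05% Triton X-100, 1% formaldehyde and 1 ug/ml Hoechst. Dosing was a single drug or a fixed anchor-drug dose plus five library-drug doses (not always all listed) in √10 steps, and values are medians of duplicate plates imaged at 4×.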
# [1] = compound: C1CNCCC1C2=CC(=NN2)C3=CC=NC=C3 + Nc1nc2[nH]cc(CCc3ccc(C(=O)N[C@@H](CCC(=O)O)C(=O)O)cc3)c2c(=O)[nH]1 [Pemetrexed] (partner 0.2 µM)
# How it was run: as §1
# [2] = compound: C[C@@H](N)c1ccc(C(=O)Nc2ccnc3[nH]ccc23)cc1 + COc1cc2c(Oc3ccc(NC(=O)C4(C(=O)Nc5ccc(F)cc5)CC4)cc3F)ccnc2cc1OCCCN1CCOCC1 [Foretinib] (partner 0.25 µM)
# How it was run: as §1
# [3] = compound: C[C@@H](N)c1ccc(C(=O)Nc2ccnc3[nH]ccc23)cc1 + CS(=O)(=O)N1CCN(Cc2cc3nc(-c4cccc5[nH]ncc45)nc(N4CCOCC4)c3s2)CC1 [Pictilisib] (partner 1 µM)
# How it was run: as §1
Cell Line,relative viability (Tanzisertib + Alpelisib; first compound 0.08 µM),relative viability (Tanzisertib + Alpelisib; first compound 0.253 µM),relative viability (Tanzisertib + Alpelisib; first compound 0.8 µM),relative viability (Tanzisertib + Alpelisib; first compound 2.53 µM),relative viability (Tanzisertib + Alpelisib; first compound 8 µM),relative viability ([1]; first compound 0.08 µM),relative viability ([1]; first compound 0.8 µM),relative viability ([1]; first compound 2.53 µM),relative viability ([1]; first compound 8 µM),relative viability ([2]; first compound 0.04 µM),relative viability ([2]; first compound 0.1265 µM),relative viability ([2]; first compound 0.4 µM),relative viability ([2]; first compound 4 µM),relative viability ([3]; first compound 0.04 µM),relative viability ([3]; first compound 0.1265 µM),relative viability ([3]; first compound 0.4 µM),relative viability ([3]; first compound 1.265 µM),relative viability ([3]; first compound 4 µM),relative viability ([2]; first compound 1.265 µM)
201T,1.03,1.04,1.01,0.993,1.01,0.349,0.384,0.332,0.352,1.1,1.04,1.25,1.31,0.702,0.636,0.685,0.519,0.788,–
A549,0.759,0.648,0.709,0.706,0.712,–,–,–,–,1.09,0.98,1.07,0.515,0.596,0.526,0.597,0.525,0.428,0.776
A-427,1.11,1.11,1.06,1.06,0.96,0.967,0.996,0.982,0.94,1.13,1,1.14,1.07,0.658,0.766,0.66,–,0.793,–
ABC-1,1.1,1.06,1.03,1.3,1.09,–,–,–,–,1.25,1.12,1.34,0.993,0.804,0.832,1.07,0.484,0.769,–
BEN,0.978,1.04,1.08,0.955,1.01,0.788,0.638,0.793,0.933,0.331,0.525,0.878,0.4,0.537,0.454,0.611,0.617,0.44,0.689
CAL-12T,1.32,1.14,1.09,1.4,1.17,1.22,1.32,1.21,1.09,1.36,1.27,1.13,0.909,0.544,0.76,0.66,–,0.437,1.27
COR-L23,0.784,0.759,0.743,0.807,0.793,0.192,0.212,0.193,0.192,0.943,1.01,1.02,0.534,0.621,0.867,0.799,0.591,0.562,0.938
COR-L 105,1.19,0.832,1.07,1.09,0.924,1.19,1.19,1.12,1.06,0.755,0.939,1.03,0.761,0.435,0.297,0.399,0.255,0.309,0.865
Calu-6,1.12,0.96,0.934,0.994,0.988,–,–,–,–,0.981,0.973,0.878,0.742,0.952,0.988,0.854,0.928,0.75,0.807
ChaGo-K-1,–,–,–,–,–,0.262,0.261,0.269,0.298,0.93,0.955,0.885,0.799,0.777,0.937,0.988,–,0.696,0.918
EBC-1,0.999,0.789,0.829,0.792,0.697,–,–,–,–,0.0976,0.0967,0.0934,0.092,0.38,0.408,0.347,0.473,0.593,0.0803
EKVX,0.72,0.846,0.952,0.832,0.685,0.423,–,0.427,0.404,0.84,0.674,0.888,0.727,0.582,0.489,0.532,0.467,0.443,0.208
EMC-BAC-2,0.78,0.754,0.725,0.688,0.688,0.464,0.448,0.435,0.439,1.08,1.05,1.11,0.903,0.491,0.575,0.531,0.476,0.411,0.967
EPLC-272H,0.998,0.942,0.951,1.01,0.971,0.298,0.317,0.38,0.412,0.715,0.747,0.797,0.587,0.387,0.34,0.339,–,0.297,0.768
H3255,0.739,0.718,0.665,0.629,0.471,0.578,0.629,0.638,0.623,0.855,0.939,1.14,0.892,0.496,0.576,0.608,0.581,0.515,0.731
HARA,0.752,0.762,0.852,0.795,0.842,0.238,0.236,0.228,0.159,–,0.939,0.943,0.896,0.634,0.517,0.432,0.475,0.292,–
HCC-15,1.04,0.884,0.924,0.874,0.797,0.221,0.229,0.234,0.211,1.21,1.03,0.966,0.975,0.821,0.705,0.796,–,0.731,–
HCC-44,0.839,0.834,0.852,0.768,0.75,0.678,0.659,0.64,0.613,–,–,–,–,0.789,0.508,0.656,0.571,0.482,–
HCC-78,0.322,0.304,0.309,0.372,0.34,0.901,–,0.925,0.885,0.626,0.573,0.623,0.693,0.509,0.318,0.297,0.137,0.254,0.771
HCC-366,0.438,0.346,0.295,0.377,0.287,0.212,0.193,0.146,0.173,0.987,0.926,0.936,1.07,0.113,0.137,0.163,0.132,0.0875,–
HCC-827,1.08,0.97,0.946,0.895,0.391,0.222,0.238,0.132,0.262,1.1,1.13,1.09,0.945,1.22,1.27,1.12,0.978,0.783,1.11

Cell Line,relative viability (Tanzisertib + Alpelisib; first compound 0.08 µM),relative viability (Tanzisertib + Alpelisib; first compound 0.253 µM),relative viability (Tanzisertib + Alpelisib; first compound 0.8 µM),relative viability (Tanzisertib + Alpelisib; first compound 2.53 µM),relative viability (Tanzisertib + Alpelisib; first compound 8 µM),relative viability ([1]; first compound 0.08 µM),relative viability ([1]; first compound 0.8 µM),relative viability ([1]; first compound 2.53 µM),relative viability ([1]; first compound 8 µM),relative viability ([2]; first compound 0.04 µM),relative viability ([2]; first compound 0.1265 µM),relative viability ([2]; first compound 0.4 µM),relative viability ([2]; first compound 4 µM),relative viability ([3]; first compound 0.04 µM),relative viability ([3]; first compound 0.1265 µM),relative viability ([3]; first compound 0.4 µM),relative viability ([3]; first compound 1.265 µM),relative viability ([3]; first compound 4 µM),relative viability ([2]; first compound 1.265 µM)
HOP-62,0.956,1.1,1.02,1.11,1.16,0.312,0.336,0.272,0.335,1.09,1.05,1.03,0.982,0.539,0.413,0.827,0.0717,0.887,1.16
IA-LM,0.908,0.802,0.83,0.85,0.956,–,–,–,–,1.28,1.33,1.43,1.08,0.456,0.484,0.752,0.676,0.835,1.2
LC-2-ad,0.902,0.888,0.939,0.876,0.815,0.261,0.291,0.273,0.281,0.963,0.867,0.873,0.661,0.641,0.43,0.696,0.592,0.372,–
LCLC-97TM1,–,0.276,0.271,0.238,0.292,0.186,0.161,0.17,0.173,0.928,0.976,0.99,0.94,0.257,0.176,0.259,0.106,0.421,1.06
LCLC-103H,0.983,0.94,0.965,0.981,0.923,0.492,0.5,0.493,0.487,0.901,0.821,0.69,0.643,0.756,0.616,0.54,0.482,0.584,0.77
LK-2,1.12,0.946,1.16,1.07,1.12,–,0.263,0.295,0.267,1.32,–,1.49,1.46,0.79,0.537,0.739,–,0.822,–
LOU-NH91,0.755,0.706,0.716,0.694,0.549,0.403,0.63,0.367,0.351,0.814,0.981,0.851,0.683,0.517,0.517,0.562,0.398,0.549,0.804
LU99A,0.549,0.519,0.521,0.503,0.456,0.218,0.181,0.153,0.337,–,0.875,0.714,0.621,0.307,0.319,0.385,0.297,0.324,0.681
LXF-289,1.06,1.02,1.05,1.04,1.11,0.936,0.967,0.856,0.814,1.11,0.993,0.987,0.843,0.943,0.779,0.928,0.872,0.683,1.07
NCI-H23,0.63,0.617,0.705,0.747,0.718,0.719,–,0.808,0.818,0.985,1.09,0.981,1.01,0.605,0.536,0.487,–,0.557,–
NCI-H522,–,–,–,–,–,0.844,1.13,0.934,1.26,–,–,–,–,–,–,–,–,–,–
NCI-H727,0.511,0.463,0.654,0.515,0.684,–,–,–,–,1.07,1.07,1.36,1.24,0.63,0.466,0.785,0.223,0.683,1.26
NCI-H1299,1.07,1.05,1.08,1.01,1.14,–,–,–,–,1.09,1.07,0.985,0.886,0.874,0.921,0.973,0.892,0.678,0.951
NCI-H1623,–,–,–,–,–,–,–,–,–,0.969,0.859,0.992,1.07,–,–,–,–,–,0.655
NCI-H1648,–,–,–,–,–,0.671,0.57,–,0.828,–,–,–,–,–,–,–,–,–,–
NCI-H1650,–,–,–,–,–,0.374,0.422,0.331,0.381,1.14,1.03,1.41,0.862,0.672,0.584,0.595,0.318,0.586,1.18
NCI-H1703,0.409,0.251,0.328,0.309,0.303,–,–,–,–,0.409,0.274,0.333,0.324,0.235,0.247,0.205,0.234,0.197,–
NCI-H1792,0.677,0.647,0.737,0.665,0.671,0.909,0.73,0.831,0.849,–,–,–,–,0.368,0.273,0.38,0.349,0.288,–
NCI-H2342,–,–,–,–,–,0.725,0.711,0.759,0.787,1.09,1.22,1.01,0.933,–,–,–,–,–,1.21
SW 900,–,–,–,–,–,0.497,–,0.5,0.454,1.1,0.972,0.867,0.762,–,–,–,–,–,0.86
